Reference: patent publication US20130059783A1, “COMPOSITIONS AND METHODS FOR EXPANDING BFU-E CELLS” (priority 2010, published 2013)

Tested on: mRNA expression in BFU-E cells
Test: mRNA-Seq of BFU-E cells cultured 4 hours with or without Dex (Table S3)
Type: cell-based, mouse
Settings: for Expression level log2((100 nM DEX)* (0 nM DEX)) / Expression of mRNA in BFU-E after 4 h 100 nM DEX (RPKM) / Expression change log2 ((100 nM DEX)/(0 nM DEX))2 / Expression change log2 ((100 nM DEX)/(0 nM DEX)): BFU-E, 4 h; for Expression change log2 ((100 nM DEX)/(0 nM DEX)): 100 nM vs 0 nM DEX
Excerpt: FIGS. 2A-2B. The effect of glucocorticoids on miRNA and mRNA expression in BFU-E cells determined by next generation sequencing. […] Both mRNAs and miRNAs were subjected to Illumina deep sequencing. […] (B) A plot similar to that in A for expression of individual mRNAs. mRNA expression was normalized using the RPKM method, which determines the relative expression of each gene to all expressed genes by giving each gene an RPKM count (number of uniquely aligning reads per kb exon per million total reads). […]
To minimize the risk of false positive GC target genes we chose to compare only highly expressed genes (≈10,000 genes with a multiplied RPKM count >4) (Mortazavi et al., 2008).
Samples for Paired-End mRNA-Seq were prepared using the Solexa kit according to the manufacturer's instructions with the exception that we extracted 300 bp bands, before and after the PCR step (Illumina). Images acquired from the Solexa sequencer were processed through the bundled Solexa image extraction pipeline version 1.4. mRNA-Seq reads were aligned to mouse NCBI build 37 (mm9) using ELAND, Briefly, the first 32 bases of a read were used as a seed. Each matched seed was then extended up to 36 bases and scored to break any ties between multi-matches. For mRNA expression counts, unique reads in the genome that landed within any exons of NCBI gene models (v37.1) were counted. The counts were normalized by the mRNA length to get the final RPKM values (i.e. reads per KB per million reads).

C[C@@H]1C[C@H]2[C@@H]3CCC4=CC(=O)C=C[C@]4(C)[C@@]3(F)[C@@H](O)C[C@]2(C)[C@@]1(O)C(=O)CO [Dex, dexamethasone]
Expression level log2((100 nM DEX)* (0 nM DEX)) (gene Kit): 12.13 | Expression of mRNA in BFU-E after 4 h 100 nM DEX (RPKM) (gene Kit): 97.02 RPKM | Expression level log2((100 nM DEX)* (0 nM DEX)) (gene Klf9): 4.86 | Expression of mRNA in BFU-E after 4 h 100 nM DEX (RPKM) (gene Klf9): 8.07 RPKM | Expression change log2 ((100 nM DEX)/(0 nM DEX))2 (gene Klf13): 1.37 | Expression level log2((100 nM DEX)* (0 nM DEX)) (gene Klf13): 8.41 | Expression of mRNA in BFU-E after 4 h 100 nM DEX (RPKM) (gene Klf13): 29.57 RPKM | Expression of mRNA in BFU-E after 4 h 100 nM DEX (RPKM) (gene Lama5): 3.90 RPKM | Expression change log2 ((100 nM DEX)/(0 nM DEX))2 (gene Lrfn1): 1.05 | Expression level log2((100 nM DEX)* (0 nM DEX)) (gene Lrfn1): 2.45 | Expression of mRNA in BFU-E after 4 h 100 nM DEX (RPKM) (gene Lrfn1): 3.37 RPKM | Expression of mRNA in BFU-E after 4 h 100 nM DEX (RPKM) (gene Maff): 6.11 RPKM | Expression change log2 ((100 nM DEX)/(0 nM DEX)) (gene Maff): 2.58 | Expression level log2((100 nM DEX)* (0 nM DEX)) (gene Man2a2): 9.07 | Expression of mRNA in BFU-E after 4 h 100 nM DEX (RPKM) (gene Man2a2): 35.22 RPKM | Expression level log2((100 nM DEX)* (0 nM DEX)) (gene Mobkl2c): 5.14 | Expression of mRNA in BFU-E after 4 h 100 nM DEX (RPKM) (gene Mobkl2c): 8.65 RPKM | Expression of mRNA in BFU-E after 4 h 100 nM DEX (RPKM) (gene Mt2): 1306.42 RPKM | Expression change log2 ((100 nM DEX)/(0 nM DEX))2 (gene Nags): 1.02 | Expression level log2((100 nM DEX)* (0 nM DEX)) (gene Nags): 2.04 | Expression of mRNA in BFU-E after 4 h 100 nM DEX (RPKM) (gene Nags): 2.88 RPKM | Expression of mRNA in BFU-E after 4 h 100 nM DEX (RPKM) (gene Ncoa7): 7.54 RPKM | Expression change log2 ((100 nM DEX)/(0 nM DEX))2 (gene Nfkbia): 1.36 | Expression level log2((100 nM DEX)* (0 nM DEX)) (gene Nfkbia): 4.55 | Expression of mRNA in BFU-E after 4 h 100 nM DEX (RPKM) (gene Nfkbia): 7.75 RPKM | Expression of mRNA in BFU-E after 4 h 100 nM DEX (RPKM) (gene Nhej1): 4.51 RPKM | Expression level log2((100 nM DEX)* (0 nM DEX)) (gene Nrgn): 7.68 | Expression of mRNA in BFU-E after 4 h 100 nM DEX (RPKM) (gene Nrgn): 21.01 RPKM | Expression of mRNA in BFU-E after 4 h 100 nM DEX (RPKM) (gene Per1): 23.34 RPKM | Expression change log2 ((100 nM DEX)/(0 nM DEX)) (gene Per1): 2.30 | Expression of mRNA in BFU-E after 4 h 100 nM DEX (RPKM) (gene Pex11a): 5.87 RPKM | Expression of mRNA in BFU-E after 4 h 100 nM DEX (RPKM) (gene Pfkfb4): 12.25 RPKM | Expression change log2 ((100 nM DEX)/(0 nM DEX)) (gene Pfkfb4): 2.47 | Expression level log2((100 nM DEX)* (0 nM DEX)) (gene Pld6): 2.64 | Expression of mRNA in BFU-E after 4 h 100 nM DEX (RPKM) (gene Pld6): 3.65 RPKM | Expression of mRNA in BFU-E after 4 h 100 nM DEX (RPKM) (gene Plk3): 5.75 RPKM | Expression change log2 ((100 nM DEX)/(0 nM DEX)) (gene Plk3): 1.76 | Expression level log2((100 nM DEX)* (0 nM DEX)) (gene Polr3gl): 3.89 | Expression of mRNA in BFU-E after 4 h 100 nM DEX (RPKM) (gene Polr3gl): 5.93 RPKM | Expression level log2((100 nM DEX)* (0 nM DEX)) (gene Rab3il1): 3.44 | Expression of mRNA in BFU-E after 4 h 100 nM DEX (RPKM) (gene Rab3il1): 4.94 RPKM | Expression level log2((100 nM DEX)* (0 nM DEX)) (gene Rapgef2): 2.18 | Expression of mRNA in BFU-E after 4 h 100 nM DEX (RPKM) (gene Rapgef2): 3.28 RPKM | Expression of mRNA in BFU-E after 4 h 100 nM DEX (RPKM) (gene Rcsd1): 8.11 RPKM | Expression change log2 ((100 nM DEX)/(0 nM DEX)) (gene Rcsd1): 1.68 | Expression level log2((100 nM DEX)* (0 nM DEX)) (gene Rps6ka1): 9.31 | Expression of mRNA in BFU-E after 4 h 100 nM DEX (RPKM) (gene Rps6ka1): 39.02 RPKM | Expression of mRNA in BFU-E after 4 h 100 nM DEX (RPKM) (gene Serpina3g): 36.06 RPKM | Expression change log2 ((100 nM DEX)/(0 nM DEX)) (gene Serpina3g): 2.06 | Expression of mRNA in BFU-E after 4 h 100 nM DEX (RPKM) (gene Slc30a10): 7.11 RPKM | Expression level log2((100 nM DEX)* (0 nM DEX)) (gene Slc44a2): 9.19 | Expression of mRNA in BFU-E after 4 h 100 nM DEX (RPKM) (gene Slc44a2): 35.91 RPKM | Expression of mRNA in BFU-E after 4 h 100 nM DEX (RPKM) (gene Socs1): 34.03 RPKM | Expression change log2 ((100 nM DEX)/(0 nM DEX)) (gene Socs1): 2.74 | Expression level log2((100 nM DEX)* (0 nM DEX)) (gene Spry1): 5.36 | Expression of mRNA in BFU-E after 4 h 100 nM DEX (RPKM) (gene Spry1): 9.31 RPKM | Expression of mRNA in BFU-E after 4 h 100 nM DEX (RPKM) (gene St3gal2): 23.29 RPKM | Expression of mRNA in BFU-E after 4 h 100 nM DEX (RPKM) (gene Syne1): 7.36 RPKM | Expression change log2 ((100 nM DEX)/(0 nM DEX))2 (gene Tle4): 1.29 | Expression level log2((100 nM DEX)* (0 nM DEX)) (gene Tle4): 6.76 | Expression of mRNA in BFU-E after 4 h 100 nM DEX (RPKM) (gene Tle4): 16.27 RPKM | Expression of mRNA in BFU-E after 4 h 100 nM DEX (RPKM) (gene Tns1): 20.01 RPKM | Expression of mRNA in BFU-E after 4 h 100 nM DEX (RPKM) (gene Tph1): 5.51 RPKM | Expression level log2((100 nM DEX)* (0 nM DEX)) (gene Trib2): 4.11 | Expression of mRNA in BFU-E after 4 h 100 nM DEX (RPKM) (gene Trib2): 6.12 RPKM | Expression of mRNA in BFU-E after 4 h 100 nM DEX (RPKM) (gene Tsc22d3): 19.83 RPKM | Expression level log2((100 nM DEX)* (0 nM DEX)) (gene Txnip): 8.13 | Expression of mRNA in BFU-E after 4 h 100 nM DEX (RPKM) (gene Txnip): 24.97 RPKM | Expression of mRNA in BFU-E after 4 h 100 nM DEX (RPKM) (gene Wdr21): 48.20 RPKM | Expression change log2 ((100 nM DEX)/(0 nM DEX))2 (gene Wdr60): 1.05 | Expression level log2((100 nM DEX)* (0 nM DEX)) (gene Wdr60): 5.00 | Expression of mRNA in BFU-E after 4 h 100 nM DEX (RPKM) (gene Wdr60): 8.14 RPKM | Expression change log2 ((100 nM DEX)/(0 nM DEX))2 (gene Zbtb16): 1.30 | Expression level log2((100 nM DEX)* (0 nM DEX)) (gene Zbtb16): 3.93 | Expression of mRNA in BFU-E after 4 h 100 nM DEX (RPKM) (gene Zbtb16): 6.14 RPKM | Expression of mRNA in BFU-E after 4 h 100 nM DEX (RPKM) (gene Zfp1): 5.67 RPKM | Expression change log2 ((100 nM DEX)/(0 nM DEX)) (gene Zfp1): 2.96 | Expression level log2((100 nM DEX)* (0 nM DEX)) (gene Zfp36l2): 13.36 | Expression of mRNA in BFU-E after 4 h 100 nM DEX (RPKM) (gene Zfp36l2): 163.74 RPKM | Genes upregulated 50% or more (multiplied RPKM count greater than zero): 395 genes
